Values belong to the compound of their own block, whether it stands above or below them.
How the values were obtained:
[1] = target: Protein kinase C theta type (Homo sapiens, UniProt Q04759); test: Selectivity interaction (KinomeScan (DiscoverX)) EUB0000666a PRKCQ; conditions: at 10 µM
[2] = target: T1, 3-phosphoinositide-dependent protein kinase 1 (Homo sapiens) (UniProt O15530); conditions: at 10 µM
T1 sequence (whole entry): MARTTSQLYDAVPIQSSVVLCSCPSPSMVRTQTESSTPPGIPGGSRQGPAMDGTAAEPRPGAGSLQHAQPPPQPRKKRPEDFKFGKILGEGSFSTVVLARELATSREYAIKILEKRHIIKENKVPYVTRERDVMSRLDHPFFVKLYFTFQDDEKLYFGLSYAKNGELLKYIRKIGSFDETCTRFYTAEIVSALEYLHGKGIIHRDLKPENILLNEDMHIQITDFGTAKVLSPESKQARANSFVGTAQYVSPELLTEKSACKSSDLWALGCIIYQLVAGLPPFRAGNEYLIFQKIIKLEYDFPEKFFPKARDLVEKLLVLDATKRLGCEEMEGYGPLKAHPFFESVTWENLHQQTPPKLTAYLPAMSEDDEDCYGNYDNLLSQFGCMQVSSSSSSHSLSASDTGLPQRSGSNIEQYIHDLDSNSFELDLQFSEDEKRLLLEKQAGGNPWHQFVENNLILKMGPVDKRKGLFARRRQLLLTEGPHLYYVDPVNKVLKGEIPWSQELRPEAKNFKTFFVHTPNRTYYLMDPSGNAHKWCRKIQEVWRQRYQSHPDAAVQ

[3] = target: Serine/threonine-protein kinase Chk2 (Homo sapiens) (UniProt O96017); test: Selectivity interaction (ActivX KiNativ screen (kinase selectivity in THP-1 cell lysates)) EUB0000639a CHEK2; assay type: subcellular; conditions: lysate, at 0.04 µM
[4] = target: T2, SNF-related serine/threonine-protein kinase (Homo sapiens) (UniProt Q9NRH2); test: Selectivity interaction (KinomeScan (DiscoverX)) EUB0001049a SNRK; conditions: at 1 µM
T2 sequence (whole entry): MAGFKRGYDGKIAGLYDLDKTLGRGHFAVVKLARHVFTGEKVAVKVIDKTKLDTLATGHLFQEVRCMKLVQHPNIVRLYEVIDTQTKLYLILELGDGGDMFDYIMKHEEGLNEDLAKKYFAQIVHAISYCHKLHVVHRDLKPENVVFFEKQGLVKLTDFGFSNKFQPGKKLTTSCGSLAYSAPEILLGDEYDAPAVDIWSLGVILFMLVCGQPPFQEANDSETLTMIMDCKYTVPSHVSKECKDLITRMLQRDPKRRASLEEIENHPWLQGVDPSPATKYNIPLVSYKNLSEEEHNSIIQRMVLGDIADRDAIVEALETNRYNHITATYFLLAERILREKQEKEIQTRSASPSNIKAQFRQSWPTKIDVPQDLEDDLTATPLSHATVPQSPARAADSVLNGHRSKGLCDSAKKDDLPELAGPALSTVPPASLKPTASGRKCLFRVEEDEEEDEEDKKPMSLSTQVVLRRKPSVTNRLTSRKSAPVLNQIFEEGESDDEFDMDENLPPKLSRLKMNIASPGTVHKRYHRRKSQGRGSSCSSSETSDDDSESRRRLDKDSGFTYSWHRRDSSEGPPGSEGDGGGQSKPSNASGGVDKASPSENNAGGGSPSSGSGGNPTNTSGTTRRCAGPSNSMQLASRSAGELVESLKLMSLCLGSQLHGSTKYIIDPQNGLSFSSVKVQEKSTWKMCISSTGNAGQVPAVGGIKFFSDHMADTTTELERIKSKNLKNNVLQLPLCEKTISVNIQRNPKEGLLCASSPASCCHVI

[5] = target: T3, Cyclin-dependent kinase-like 5 (Homo sapiens) (UniProt O76039); test: Selectivity interaction (KinomeScan (DiscoverX)) EUB0000618a CDKL5; conditions: at 10 µM
T3 sequence (whole entry): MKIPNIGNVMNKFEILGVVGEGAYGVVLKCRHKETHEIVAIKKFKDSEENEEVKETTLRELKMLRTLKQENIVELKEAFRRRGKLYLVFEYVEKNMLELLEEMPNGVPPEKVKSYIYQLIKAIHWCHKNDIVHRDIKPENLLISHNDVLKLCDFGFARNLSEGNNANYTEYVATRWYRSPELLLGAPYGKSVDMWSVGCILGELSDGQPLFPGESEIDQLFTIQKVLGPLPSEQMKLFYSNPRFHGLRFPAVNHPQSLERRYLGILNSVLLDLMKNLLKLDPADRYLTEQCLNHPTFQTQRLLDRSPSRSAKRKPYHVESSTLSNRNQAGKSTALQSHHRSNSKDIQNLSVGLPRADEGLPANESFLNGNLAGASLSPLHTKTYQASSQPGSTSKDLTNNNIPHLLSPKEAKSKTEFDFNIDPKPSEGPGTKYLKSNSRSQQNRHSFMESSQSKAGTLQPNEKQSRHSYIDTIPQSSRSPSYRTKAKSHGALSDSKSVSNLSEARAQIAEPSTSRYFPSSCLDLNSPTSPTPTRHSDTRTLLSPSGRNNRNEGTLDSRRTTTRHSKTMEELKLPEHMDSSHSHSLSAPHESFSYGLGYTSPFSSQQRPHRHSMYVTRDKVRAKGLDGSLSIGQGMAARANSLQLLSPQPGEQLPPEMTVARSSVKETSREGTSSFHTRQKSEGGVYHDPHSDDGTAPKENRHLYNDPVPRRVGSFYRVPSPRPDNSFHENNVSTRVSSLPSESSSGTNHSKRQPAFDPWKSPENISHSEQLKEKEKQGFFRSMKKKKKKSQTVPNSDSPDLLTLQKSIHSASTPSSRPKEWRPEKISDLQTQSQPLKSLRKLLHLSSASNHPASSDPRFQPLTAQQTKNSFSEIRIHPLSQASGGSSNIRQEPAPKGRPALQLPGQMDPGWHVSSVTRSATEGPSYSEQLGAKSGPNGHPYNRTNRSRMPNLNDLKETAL

Protein kinase C theta type, sequence (Q04759 whole entry, looked up): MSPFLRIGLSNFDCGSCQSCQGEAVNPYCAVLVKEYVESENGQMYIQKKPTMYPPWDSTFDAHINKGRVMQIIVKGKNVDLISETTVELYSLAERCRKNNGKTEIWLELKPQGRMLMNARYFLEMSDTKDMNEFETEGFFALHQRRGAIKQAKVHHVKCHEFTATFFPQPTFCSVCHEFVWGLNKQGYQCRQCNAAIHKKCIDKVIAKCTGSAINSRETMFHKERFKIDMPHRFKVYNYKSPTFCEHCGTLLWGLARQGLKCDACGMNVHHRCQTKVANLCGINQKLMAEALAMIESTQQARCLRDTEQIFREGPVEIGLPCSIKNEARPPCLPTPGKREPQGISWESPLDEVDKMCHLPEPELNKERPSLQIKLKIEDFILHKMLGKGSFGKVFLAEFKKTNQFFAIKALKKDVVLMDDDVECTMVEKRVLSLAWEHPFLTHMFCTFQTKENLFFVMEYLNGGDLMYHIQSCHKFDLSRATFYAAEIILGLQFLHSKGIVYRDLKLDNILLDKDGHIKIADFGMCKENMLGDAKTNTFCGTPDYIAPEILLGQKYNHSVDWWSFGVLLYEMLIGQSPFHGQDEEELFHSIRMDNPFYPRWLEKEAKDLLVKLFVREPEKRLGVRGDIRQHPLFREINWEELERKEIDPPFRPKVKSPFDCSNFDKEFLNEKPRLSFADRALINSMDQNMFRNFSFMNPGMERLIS
Serine/threonine-protein kinase Chk2 (Homo sapiens), sequence (O96017 whole entry): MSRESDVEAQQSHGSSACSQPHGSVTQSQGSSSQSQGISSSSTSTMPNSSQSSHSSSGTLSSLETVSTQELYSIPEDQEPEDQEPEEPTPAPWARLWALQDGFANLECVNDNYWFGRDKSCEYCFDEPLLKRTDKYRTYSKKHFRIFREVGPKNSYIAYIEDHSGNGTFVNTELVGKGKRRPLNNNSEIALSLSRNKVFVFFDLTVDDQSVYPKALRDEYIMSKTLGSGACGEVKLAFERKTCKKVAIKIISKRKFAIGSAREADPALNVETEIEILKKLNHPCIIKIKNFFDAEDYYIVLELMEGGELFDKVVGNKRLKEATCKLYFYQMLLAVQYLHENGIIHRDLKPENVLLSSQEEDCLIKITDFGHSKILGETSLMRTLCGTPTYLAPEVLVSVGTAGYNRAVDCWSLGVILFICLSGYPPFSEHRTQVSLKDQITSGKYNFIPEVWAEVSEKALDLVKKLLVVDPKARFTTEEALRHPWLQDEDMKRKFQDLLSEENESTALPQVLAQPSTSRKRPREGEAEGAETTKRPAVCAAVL

SMILES: O=C(NOC[C@H](O)CO)c1ccc(F)c(F)c1Nc1ccc(I)cc1F
- % of control [1]: 100%

- % of control [2]: 100%
SMILES: CCN(CC)CCCCNc1ncc2cc(-c3cc(OC)cc(OC)c3)c(NC(=O)NC(C)(C)C)nc2n1

- % of inhibition [3]: -4.5%
SMILES: CC[C@@H]1[C@H](F)C(=O)N[C@@H]1COc1nccc2cc(C(N)=O)c(OC)cc12 [ZIMLOVISERTIB]

SMILES: COc1cc(Nc2nc(C)cc(-c3cnn4nc(OC)ccc34)n2)cc(C(F)(F)F)c1
- % of control [4]: 100%

SMILES: O[C@H]1CC[C@H](Nc2ncc3nc(Nc4c(F)cc(F)cc4F)n([C@H]4CCOC4)c3n2)CC1
- % of control [5]: 100%

Reference: ChEMBL document CHEMBL5465560, “Selectivity Literature for EUbOPEN Chemogenomic Library” (2024)
